Laboratory results reported in ChEMBL document CHEMBL4354844, “Discovery of Balovaptan, a Vasopressin 1a Receptor Antagonist for the Treatment of Autism Spectrum Disorder” (J Med Chem, 2020).

Test system: not listed separately
Assay: Selectivity ratio of Kb for antagonist activity at human V2 receptor to Kb for antagonist activity at human Gq5s-coupled V1a receptor expressed in CHO cells
Conditions: not given

SMILES | Selectivity ratio
CN1Cc2cc(Cl)ccc2-n2c(nnc2C2CC=C(c3ccccc3)CC2)C1 (racemic) | 90
CN1Cc2cc(Cl)ccc2-n2c(nnc2[C@H]2CC[C@H](c3ccccc3)CC2)C1 | 17
CN1Cc2cc(Cl)ccc2-n2c(nnc2C2CCN(c3ccccn3)CC2)C1 | 2478
CS(=O)(=O)N1Cc2cc(Cl)ccc2-n2c(nnc2[C@H]2CC[C@H](Oc3ccccc3)CC2)C1 | 573
CC(=O)N1Cc2cc(Cl)ccc2-n2c(nnc2[C@H]2CC[C@H](Oc3ccccc3)CC2)C1 | 1055
CN1Cc2cc(Cl)ccc2-n2c(nnc2N2CCC(O)(c3ccccc3)CC2)C1 | 38
CN1Cc2cc(Cl)ccc2-n2c(nnc2N2CCC3(CC2)OCc2ccccc23)C1 | 218
CN(C)CC(=O)N1Cc2cc(Cl)ccc2-n2c(nnc2[C@H]2CC[C@H](Oc3ccccc3)CC2)C1 | 963
CC(C)N1Cc2cc(Cl)ccc2-n2c(nnc2[C@H]2CC[C@H](Oc3ccccc3)CC2)C1 | 535
CN(C)S(=O)(=O)N1Cc2cc(Cl)ccc2-n2c(nnc2[C@H]2CC[C@H](Oc3ccccc3)CC2)C1 | 445
CN1Cc2cc(Cl)ccc2-n2c(nnc2N2CCC3(CC2)OCCc2ccccc23)C1 | 44
OCCN1Cc2cc(Cl)ccc2-n2c(nnc2[C@H]2CC[C@H](Oc3ccccc3)CC2)C1 | 1091
CN1Cc2cc(Cl)ccc2-n2c(nnc2N2CCC3(CC2)SCc2ccccc23)C1 | 65
CN1Cc2cc(Cl)ccc2-n2c(nnc2[C@H]2CC[C@H](Oc3ccccc3)CC2)C1 | 629
CC(C)(C)OC(=O)N1Cc2cc(Cl)ccc2-n2c(nnc2[C@H]2CC[C@H](Oc3ccccc3)CC2)C1 | 19
CN1Cc2cc(Cl)ccc2-n2c(nnc2[C@H]2CC[C@]3(CC2)OCc2ccccc23)C1 | 19
CN1Cc2cc(Cl)ccc2-n2c(nnc2[C@H]2CC[C@@]3(CC2)OCc2ccccc23)C1 | 669
Cc1nnc(-c2ccc(-c3ccccc3)cc2)n1-c1ccccc1OCCCCCCN1CCN(C)CC1 | 67
Clc1ccc2c(c1)CN(C1CCC1)Cc1nnc([C@H]3CC[C@H](Oc4ccccc4)CC3)n1-2 | 179
CN1Cc2cc(Cl)ccc2-n2c(nnc2[C@H]2CC[C@H](c3ccccn3)CC2)C1 | 1081
CN1Cc2cc(Cl)ccc2-n2c(nnc2N2CCC3(CC2)COCc2ccccc23)C1 | 167

Test system: not listed separately
Assay: Selectivity ratio of Kb for antagonist activity at human […] receptor to Kb for antagonist activity at human Gq5s-coupled V1a receptor expressed in CHO cells
Conditions: not given

SMILES | Selectivity ratio
CN1Cc2cc(Cl)ccc2-n2c(nnc2C2CC=C(c3ccccc3)CC2)C1 (racemic) | 22
CN1Cc2cc(Cl)ccc2-n2c(nnc2[C@H]2CC[C@H](c3ccccc3)CC2)C1 | 4
CN1Cc2cc(Cl)ccc2-n2c(nnc2C2CCN(c3ccccn3)CC2)C1 | 2415
CS(=O)(=O)N1Cc2cc(Cl)ccc2-n2c(nnc2[C@H]2CC[C@H](Oc3ccccc3)CC2)C1 | 191
CC(=O)N1Cc2cc(Cl)ccc2-n2c(nnc2[C@H]2CC[C@H](Oc3ccccc3)CC2)C1 | 538
CN1Cc2cc(Cl)ccc2-n2c(nnc2N2CCC(O)(c3ccccc3)CC2)C1 | 35
CN1Cc2cc(Cl)ccc2-n2c(nnc2N2CCC3(CC2)OCc2ccccc23)C1 | 127
CN(C)CC(=O)N1Cc2cc(Cl)ccc2-n2c(nnc2[C@H]2CC[C@H](Oc3ccccc3)CC2)C1 | 1025
CC(C)N1Cc2cc(Cl)ccc2-n2c(nnc2[C@H]2CC[C@H](Oc3ccccc3)CC2)C1 | 224
CN(C)S(=O)(=O)N1Cc2cc(Cl)ccc2-n2c(nnc2[C@H]2CC[C@H](Oc3ccccc3)CC2)C1 | 190
CN1Cc2cc(Cl)ccc2-n2c(nnc2N2CCC3(CC2)OCCc2ccccc23)C1 | 10
OCCN1Cc2cc(Cl)ccc2-n2c(nnc2[C@H]2CC[C@H](Oc3ccccc3)CC2)C1 | 677
CN1Cc2cc(Cl)ccc2-n2c(nnc2N2CCC3(CC2)SCc2ccccc23)C1 | 9
CN1Cc2cc(Cl)ccc2-n2c(nnc2[C@H]2CC[C@H](Oc3ccccc3)CC2)C1 | 289
CC(C)(C)OC(=O)N1Cc2cc(Cl)ccc2-n2c(nnc2[C@H]2CC[C@H](Oc3ccccc3)CC2)C1 | 17
CN1Cc2cc(Cl)ccc2-n2c(nnc2[C@H]2CC[C@]3(CC2)OCc2ccccc23)C1 | 5
CN1Cc2cc(Cl)ccc2-n2c(nnc2[C@H]2CC[C@@]3(CC2)OCc2ccccc23)C1 | 236
Cc1nnc(-c2ccc(-c3ccccc3)cc2)n1-c1ccccc1OCCCCCCN1CCN(C)CC1 | 34
Clc1ccc2c(c1)CN(C1CCC1)Cc1nnc([C@H]3CC[C@H](Oc4ccccc4)CC3)n1-2 | 113
CN1Cc2cc(Cl)ccc2-n2c(nnc2[C@H]2CC[C@H](c3ccccn3)CC2)C1 | 863
CN1Cc2cc(Cl)ccc2-n2c(nnc2N2CCC3(CC2)COCc2ccccc23)C1 | 14

Test system: not listed separately
Assay: Water/octanol distribution coefficient, log D of the compound at pH 7.4 measured after 18 hrs by LC-MS analysis
Format: physicochemical
Conditions: not given

SMILES | logD at 18 h
CN1Cc2cc(Cl)ccc2-n2c(nnc2[C@H]2CC[C@H](c3ccc(F)cn3)CC2)C1 | 2.5 to 3.2
CN1Cc2cc(Cl)ccc2-n2c(nnc2[C@H]2CC[C@H](c3cccc(Cl)n3)CC2)C1 | 2.5 to 3.2
CN1Cc2cc(Cl)ccc2-n2c(nnc2[C@H]2CC[C@H](c3noc4ccccc43)CC2)C1 | > 3
CS(=O)(=O)N1Cc2cc(Cl)ccc2-n2c(nnc2[C@H]2CC[C@H](Oc3ccccc3)CC2)C1 | 3.1
CC(=O)N1Cc2cc(Cl)ccc2-n2c(nnc2[C@H]2CC[C@H](Oc3ccccc3)CC2)C1 | 2.9
Cc1cc(C)nc([C@H]2CC[C@H](c3nnc4n3-c3ccc(Cl)cc3CN(C)C4)CC2)n1 | 2
CN(C)CC(=O)N1Cc2cc(Cl)ccc2-n2c(nnc2[C@H]2CC[C@H](Oc3ccccc3)CC2)C1 | 2.5
CN(C)S(=O)(=O)N1Cc2cc(Cl)ccc2-n2c(nnc2[C@H]2CC[C@H](Oc3ccccc3)CC2)C1 | 4.1
CN1Cc2cc(Cl)ccc2-n2c(nnc2[C@H]2CC[C@H](n3nnc4ccccc43)CC2)C1 | 2.4
Cc1cccc([C@H]2CC[C@H](c3nnc4n3-c3ccc(Cl)cc3CN(C)C4)CC2)n1 | 2.5 to 3.2
CN1Cc2cc(Cl)ccc2-n2c(nnc2[C@H]2CC[C@H](c3ncc(F)cc3F)CC2)C1 | 2.5 to 3.2
CN1Cc2cc(Cl)ccc2-n2c(nnc2[C@H]2CC[C@H](c3ncccc3Cl)CC2)C1 | 2.5 to 3.2
OCCN1Cc2cc(Cl)ccc2-n2c(nnc2[C@H]2CC[C@H](Oc3ccccc3)CC2)C1 | 2.7
CN1Cc2cc(Cl)ccc2-n2c(nnc2[C@H]2CC[C@H](Oc3ccccc3)CC2)C1 | 3.2
CN1Cc2cc(Cl)ccc2-n2c(nnc2[C@H]2CC[C@H](c3ncccc3F)CC2)C1 | 2.5 to 3.2
Clc1ccc2c(c1)CN(C1CCC1)Cc1nnc([C@H]3CC[C@H](Oc4ccccc4)CC3)n1-2 | > 3
CN1Cc2cc(Cl)ccc2-n2c(nnc2[C@H]2CC[C@H](C3=NOCC3)CC2)C1 | 1

Molecular target: Vasopressin V1a receptor (Homo sapiens) (UniProt P37288)
Assay: Antagonist activity at human Gq5s-coupled V1a receptor expressed in CHO cells assessed as inhibition of vasopressin-induced calcium flux preincubated for 20 mins followed by vasopressin addition and measured for 5 mins by fluo-4-AM dye based FLIPR assay
Format: functional, cell-based
Conditions: not given

Sequence of Vasopressin V1a receptor (Homo sapiens) (P37288 whole entry, looked up): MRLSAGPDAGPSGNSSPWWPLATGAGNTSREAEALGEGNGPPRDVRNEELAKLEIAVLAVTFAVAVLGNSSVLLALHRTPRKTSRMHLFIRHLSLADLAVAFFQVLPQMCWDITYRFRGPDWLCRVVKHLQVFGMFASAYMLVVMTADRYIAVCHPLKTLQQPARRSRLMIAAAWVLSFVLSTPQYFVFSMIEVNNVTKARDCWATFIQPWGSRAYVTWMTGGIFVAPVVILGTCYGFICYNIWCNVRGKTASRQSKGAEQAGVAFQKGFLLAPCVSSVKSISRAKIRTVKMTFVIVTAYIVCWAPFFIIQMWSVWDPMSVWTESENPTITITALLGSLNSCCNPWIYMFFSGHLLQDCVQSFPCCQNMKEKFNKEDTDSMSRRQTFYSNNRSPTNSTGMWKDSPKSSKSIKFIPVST

SMILES | pKb
CN1Cc2cc(Cl)ccc2-n2c(nnc2C2CC=C(c3ccccc3)CC2)C1 (racemic) | 9.3
CN1Cc2cc(Cl)ccc2-n2c(nnc2[C@H]2CC[C@H](c3ccccc3)CC2)C1 | 9.5
CN1Cc2cc(Cl)ccc2-n2c(nnc2C2CCN(c3ccccn3)CC2)C1 | 8.9
CS(=O)(=O)N1Cc2cc(Cl)ccc2-n2c(nnc2[C@H]2CC[C@H](Oc3ccccc3)CC2)C1 | 9.5
CC(=O)N1Cc2cc(Cl)ccc2-n2c(nnc2[C@H]2CC[C@H](Oc3ccccc3)CC2)C1 | 9.5
CN1Cc2cc(Cl)ccc2-n2c(nnc2N2CCC(O)(c3ccccc3)CC2)C1 | 8.6
CN1Cc2cc(Cl)ccc2-n2c(nnc2N2CCC3(CC2)OCc2ccccc23)C1 | 9.6
CN(C)CC(=O)N1Cc2cc(Cl)ccc2-n2c(nnc2[C@H]2CC[C@H](Oc3ccccc3)CC2)C1 | 9.2
CC(C)N1Cc2cc(Cl)ccc2-n2c(nnc2[C@H]2CC[C@H](Oc3ccccc3)CC2)C1 | 9.4
CN(C)S(=O)(=O)N1Cc2cc(Cl)ccc2-n2c(nnc2[C@H]2CC[C@H](Oc3ccccc3)CC2)C1 | 9.5
CN1Cc2cc(Cl)ccc2-n2c(nnc2N2CCC3(CC2)OCCc2ccccc23)C1 | 8.8
OCCN1Cc2cc(Cl)ccc2-n2c(nnc2[C@H]2CC[C@H](Oc3ccccc3)CC2)C1 | 9.6
CN1Cc2cc(Cl)ccc2-n2c(nnc2N2CCC3(CC2)SCc2ccccc23)C1 | 9
CN1Cc2cc(Cl)ccc2-n2c(nnc2[C@H]2CC[C@H](Oc3ccccc3)CC2)C1 | 9.5
CC(C)(C)OC(=O)N1Cc2cc(Cl)ccc2-n2c(nnc2[C@H]2CC[C@H](Oc3ccccc3)CC2)C1 | 8.5
CN1Cc2cc(Cl)ccc2-n2c(nnc2[C@H]2CC[C@]3(CC2)OCc2ccccc23)C1 | 9.1
CN1Cc2cc(Cl)ccc2-n2c(nnc2[C@H]2CC[C@@]3(CC2)OCc2ccccc23)C1 | 9.2
Cc1nnc(-c2ccc(-c3ccccc3)cc2)n1-c1ccccc1OCCCCCCN1CCN(C)CC1 | 8.7
Clc1ccc2c(c1)CN(C1CCC1)Cc1nnc([C@H]3CC[C@H](Oc4ccccc4)CC3)n1-2 | 9.3
CN1Cc2cc(Cl)ccc2-n2c(nnc2[C@H]2CC[C@H](c3ccccn3)CC2)C1 | 9.6
CN1Cc2cc(Cl)ccc2-n2c(nnc2N2CCC3(CC2)COCc2ccccc23)C1 | 9.3

Test system: not listed separately
Assay: Intrinsic clearance in human liver microsomes assessed per mg protein
Format: ADME, Microsome
Conditions: read-out: CLH

SMILES | microsomal CLint
CN1Cc2cc(Cl)ccc2-n2c(nnc2C2CCN(c3ccccn3)CC2)C1 | < 10 µL/min/mg
CN1Cc2cc(Cl)ccc2-n2c(nnc2N2CCC(O)(c3ccccc3)CC2)C1 | < 10 µL/min/mg
CN1Cc2cc(Cl)ccc2-n2c(nnc2N2CCC3(CC2)OCc2ccccc23)C1 | < 10 µL/min/mg
CN1Cc2cc(Cl)ccc2-n2c(nnc2N2CCC3(CC2)OCCc2ccccc23)C1 | < 10 µL/min/mg
CN1Cc2cc(Cl)ccc2-n2c(nnc2N2CCC3(CC2)SCc2ccccc23)C1 | 24 µL/min/mg
CN1Cc2cc(Cl)ccc2-n2c(nnc2[C@H]2CC[C@]3(CC2)OCc2ccccc23)C1 | 10 µL/min/mg
CN1Cc2cc(Cl)ccc2-n2c(nnc2[C@H]2CC[C@@]3(CC2)OCc2ccccc23)C1 | 72 µL/min/mg
CN1Cc2cc(Cl)ccc2-n2c(nnc2N2CCC3(CC2)COCc2ccccc23)C1 | 22 µL/min/mg

Molecular target: MDR1 (ABCB1, P-glycoprotein) (Homo sapiens, UniProt P08183)
Assay: Substrate activity at human MDR1 expressed in LLC-PK1 cells assessed as efflux ratio of permeability at 1 uM measured after 3.5 hrs by lucifer yellow based scintillation counting or HPLC method
Format: ADME, cell-based
Conditions: not given

Sequence of MDR1 (ABCB1, P-glycoprotein) (P08183 whole entry): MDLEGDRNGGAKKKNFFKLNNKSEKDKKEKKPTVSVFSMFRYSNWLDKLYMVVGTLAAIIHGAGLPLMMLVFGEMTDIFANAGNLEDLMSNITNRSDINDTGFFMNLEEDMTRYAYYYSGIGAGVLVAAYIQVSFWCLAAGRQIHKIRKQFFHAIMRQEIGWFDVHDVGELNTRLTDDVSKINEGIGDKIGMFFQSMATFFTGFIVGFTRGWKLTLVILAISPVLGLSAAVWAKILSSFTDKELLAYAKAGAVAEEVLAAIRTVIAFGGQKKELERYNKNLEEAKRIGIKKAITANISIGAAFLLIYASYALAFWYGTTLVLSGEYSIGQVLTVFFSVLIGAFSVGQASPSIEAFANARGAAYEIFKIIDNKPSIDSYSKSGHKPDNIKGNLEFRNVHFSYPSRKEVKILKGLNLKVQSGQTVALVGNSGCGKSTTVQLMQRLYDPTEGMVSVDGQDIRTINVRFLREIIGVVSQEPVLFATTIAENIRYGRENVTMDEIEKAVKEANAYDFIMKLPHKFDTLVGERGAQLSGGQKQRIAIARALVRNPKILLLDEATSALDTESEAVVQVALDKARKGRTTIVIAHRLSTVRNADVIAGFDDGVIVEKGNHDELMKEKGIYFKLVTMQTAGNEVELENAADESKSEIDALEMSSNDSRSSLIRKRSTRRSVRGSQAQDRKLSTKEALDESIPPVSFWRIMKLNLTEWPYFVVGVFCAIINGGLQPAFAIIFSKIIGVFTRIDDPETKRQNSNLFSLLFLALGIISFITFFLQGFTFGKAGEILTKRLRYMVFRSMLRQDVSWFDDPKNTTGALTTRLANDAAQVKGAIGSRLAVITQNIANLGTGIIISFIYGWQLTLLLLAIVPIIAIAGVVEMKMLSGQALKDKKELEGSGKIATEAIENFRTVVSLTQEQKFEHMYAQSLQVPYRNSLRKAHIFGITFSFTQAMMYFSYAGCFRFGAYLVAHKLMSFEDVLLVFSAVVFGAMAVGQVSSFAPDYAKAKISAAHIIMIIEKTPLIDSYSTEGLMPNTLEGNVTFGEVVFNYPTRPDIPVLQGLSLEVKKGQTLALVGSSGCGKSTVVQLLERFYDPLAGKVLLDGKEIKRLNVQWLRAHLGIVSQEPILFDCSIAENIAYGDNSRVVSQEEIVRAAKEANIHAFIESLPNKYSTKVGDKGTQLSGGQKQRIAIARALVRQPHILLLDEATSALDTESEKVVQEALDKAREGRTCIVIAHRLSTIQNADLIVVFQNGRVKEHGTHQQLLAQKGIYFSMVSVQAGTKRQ

SMILES | efflux ratio at 3.5 h, 1 µM
CN1Cc2cc(Cl)ccc2-n2c(nnc2[C@H]2CC[C@H](c3noc4ccccc43)CC2)C1 | 1.4
CN1Cc2cc(Cl)ccc2-n2c(nnc2[C@H]2CC[C@H](n3nnc4ccccc43)CC2)C1 | 10.9
CN1Cc2cc(Cl)ccc2-n2c(nnc2[C@H]2CC[C@H](Nc3ccccn3)CC2)C1 | 14
Cc1onc([C@H]2CC[C@H](c3nnc4n3-c3ccc(Cl)cc3CN(C)C4)CC2)c1C | 3.8
CN1Cc2cc(Cl)ccc2-n2c(nnc2[C@H]2CC[C@H](c3ccccn3)CC2)C1 | 4.4
CN1Cc2cc(Cl)ccc2-n2c(nnc2[C@H]2CC[C@H](C3=NOCC3)CC2)C1 | 6.1

Test system: not listed separately
Assay: Intrinsic clearance in rat liver microsomes assessed per mg protein
Format: ADME, Microsome
Conditions: read-out: CLH

SMILES | microsomal CLint
CN1Cc2cc(Cl)ccc2-n2c(nnc2C2CCN(c3ccccn3)CC2)C1 | 72 µL/min/mg
CN1Cc2cc(Cl)ccc2-n2c(nnc2N2CCC(O)(c3ccccc3)CC2)C1 | 435 µL/min/mg
CN1Cc2cc(Cl)ccc2-n2c(nnc2N2CCC3(CC2)OCc2ccccc23)C1 | 718 µL/min/mg
CN1Cc2cc(Cl)ccc2-n2c(nnc2N2CCC3(CC2)OCCc2ccccc23)C1 | 550 µL/min/mg
CN1Cc2cc(Cl)ccc2-n2c(nnc2N2CCC3(CC2)SCc2ccccc23)C1 | 493 µL/min/mg
CN1Cc2cc(Cl)ccc2-n2c(nnc2[C@H]2CC[C@]3(CC2)OCc2ccccc23)C1 | 206 µL/min/mg
CN1Cc2cc(Cl)ccc2-n2c(nnc2[C@H]2CC[C@@]3(CC2)OCc2ccccc23)C1 | 1000 µL/min/mg
CN1Cc2cc(Cl)ccc2-n2c(nnc2N2CCC3(CC2)COCc2ccccc23)C1 | 949 µL/min/mg
